The target in one series is recombinant eEF2K (Homo sapiens (Human), UniProt O00418). Description: eEF2K Kinase-Glo luminescent kinase assay (ATP consumption, peptide substrate). Format: biochemical. The settings on record: average of two to four separate experimental measurements, each the average of three replicates. The procedure: The following compounds were synthesized using the general methods described above. In the table below, IC50 values are in μM and are the average of two to four separate experimental measurements, each consisting in turn of the average of three replicates. IC50 values were calculated using the methods as described in Example 2. MW was determined by mass spectroscopy analysis, and is expressed as M+1.
To determine the IC50 of compounds of the invention, recombinant eEF2K was diluted in an assay buffer in the presence of calmodulin, a calcium-binding messenger protein expressed in eukaryotic cells, and incubated with peptide substrate Ac-RKKYKFNEDTERRRFL in the presence of Adenosine-5′-triphosphate (ATP) and the test compound. The peptide substrate is efficiently and specifically phosphorylated by eEF2K at a single substrate concentration of 100 μM. Using this peptide, eEF2K activity can be quantitatively determined using a Kinase-Glo® luminescent kinase assay kit (Promega) that measures ATP consumption by EF2K during phosphorylation of the substrate. ATP conversion was recorded using Perkin-Elmer Victor Luminometer. Data was plotted using GraphPad software and IC50 was calculated using 3-parameter sigmoidal curve fit.
On the technique in general: Kinase-Glo measures the ATP left after a reaction by luminescence.

Series [1] relates to breast cancer cell line MDA-MB-231. Description: Potentiation of doxorubicin effect, CellTiter-Glo cell viability. The format is cell-based. As for the experimental part: The potentiation of doxorubicin effect of eEF2K inhibition by Compound 35 in combination with doxorubicin was evaluated. The breast cancer cell line MDA-MB-231 (ATCC No. HTB-26) was incubated with 0.4 μM doxorubicin for 24 hours, with both a negative control (untreated) group and a group receiving only 10 μM Compound 35 but not doxorubicin.
On the technique in general: Cellular ATP, detected with luciferase, serves as a proxy for viable cell number.

Series [2] has as its system human bone osteosarcoma cancer cell line MG63. Description: Cell viability under normal conditions and nutrient deprivation, CellTiter-Glo. Format: cell-based. As for the experimental part: The effect of eEF2K inhibition on the malignant human bone osteosarcoma cancer cell line MG63 (ATCC No. CRL-1427) was evaluated under both normal conditions and during nutrient deprivation. […] One group of cells were grown under normal conditions (advanced MEM/glutamine/10% FBS) and the other group of cells were switched to conditions of nutrient deprivation (HBSS/22 mM HEPES) twenty-four hours after plating. Each group was divided into three subsets: cells receiving no treatment; cells receiving vehicle (DMSO) and cells receiving 10 μM of Compound 35.

Series [3] concerns rat embryonic myocardium cell line H9C2. Description: Doxorubicin-induced apoptosis, CellTiter-Glo cell viability. To be noted: for recovery, percent of original density: H9C2, 0.4 μM doxorubicin 24 hours.
Protocol: The cells were plated into 48-well plates at 0.2×10^5 cells per well and allowed to attach overnight. […] Cell viability was measured on days 1, 2, 3, and 6 using the Promega CellTiter-Glo® Luminescent Cell Viability Assay.
Series [4] in a line: Pharmacokinetic study, intravenous administration. To be noted: mouse, in vivo, male CD-1 mice, 1 mg/kg.

Where only a bound is given, the exact number is not on record here.

One may read the IC50 as the concentration at which inhibition is half-maximal. In general, half-life refers to how long it takes for the measured level to halve. Read a high half-life as slow decline. As usually defined, the Cmax is the maximum level reached in the sampled fluid or tissue.

With `CC1(C)CCc2nc3sc(C(N)=O)c(N)c3c(-c3cncs3)c2C1` [Compound 33, 3-Amino-6,6-dimethyl-4-thiazol-5-yl-5,6,7,8-tetrahydro-thieno[2,3-b]quinoline-2-carboxylic acid amide], the IC50 at recombinant eEF2K was 1100 nM.

With `CC1(C)CCc2c1nc1sc(C(N)=O)c(N)c1c2-c1sccc1Br` [Compound 34, 3-Amino-4-(3-bromo-thiophen-2-yl)-7,7-dimethyl-6,7-dihydro-5H-1-thia-8-aza-s-indacene-2-carboxylic acid amide], the IC50 on recombinant eEF2K is 800 nM.

Regarding `CC1(C)CCc2c(nc3sc(C(N)=O)c(N)c3c2-c2cncs2)C1` [Compound 35, 3-Amino-7,7-dimethyl-4-thiazol-5-yl-5,6,7,8-tetrahydro-thieno[2,3-b]quinoline-2-carboxylic acid amide], the “percent of viable cells” value is reported as “significant decrease” in series [1] (MDA-MB-231, 0.4 μM doxorubicin 24 hours plus 10 μM Compound 35 twice daily for 72 hours, days 2, 4 and 6); “increased substantially” in series [1] (MDA-MB-231, 10 μM Compound 35 without doxorubicin, by day 6). Also, the IC50 at recombinant eEF2K was 400 nM. In addition, the viability at 10 µM in series [2] (Homo sapiens, MG-63, 144 h, MG63, nutrient deprivation (HBSS/22 mM HEPES), by day 6, read-out: percent viable cells) was below 10%. For the same molecule, the cell growth entry in series [2] (MG63, normal conditions (advanced MEM/glutamine/10% FBS), 10 μM) is “significant growth”. The “protection of H9C2 cells from doxorubicin-induced toxicity” value in series [3] (0.4 μM doxorubicin 24 hours, 2 μM or 10 μM compound twice daily for 72 hours) is “robust, dose-dependent protection”. The “recovery, percent of original density” value in series [3] (2 μM compound, by day 6) is 85%; in series [3] (10 μM compound, by day 2), 85%. Further, the half-life in series [4] came out at 34 min. This molecule also had a Cmax in series [4] (at five minutes) of 356 ng/mL.

Take `CC1CC(C)(C)Cc2nc3sc(C(N)=O)c(N)c3c(-c3cncs3)c21` (centres unmarked) [Compound 36, 3-Amino-5,7,7-trimethyl-4-thiazol-5-yl-5,6,7,8-tetrahydro-thieno[2,3-b]quinoline-2-carboxylic acid amide]: on recombinant eEF2K, the concentration for half-maximal inhibition (IC50) was 400 nM.

`CC1(C)CCCc2c1nc1sc(C(N)=O)c(N)c1c2-c1cc(Br)co1` [Compound 37, 3-Amino-4-(4-bromo-furan-2-yl)-8,8-dimethyl-5,6,7,8-tetrahydro-thieno[2,3-b]quinoline-2-carboxylic acid amide]: at recombinant eEF2K, the IC50 came out at 900 nM.

`CC1(C)CCCc2c1nc1sc(C(N)=O)c(N)c1c2-c1cncs1` [Compound 38, 3-Amino-8,8-dimethyl-4-thiazol-5-yl-5,6,7,8-tetrahydro-thieno[2,3-b]quinoline-2-carboxylic acid amide]: on recombinant eEF2K, the IC50 was found to be 300 nM.

In the case of `Cn1cc(-c2c3c(nc4sc(C(N)=O)c(N)c24)C(C)(C)CCC3)cn1` [Compound 39, 3-Amino-8,8-dimethyl-4-(1-methyl-1H-pyrazol-4-yl)-5,6,7,8-tetrahydro-thieno[2,3-b]quinoline-2-carboxylic acid amide], the IC50 on recombinant eEF2K worked out at 1400 nM.

Turning to `Cc1ncsc1-c1c2c(nc3sc(C(N)=O)c(N)c13)C(C)(C)CC2` [Compound 40, 3-Amino-7,7-dimethyl-4-(4-methyl-thiazol-5-yl)-6,7-dihydro-5H-1-thia-8-aza-s-indacene-2-carboxylic acid amide], the 50% inhibitory concentration (IC50) at recombinant eEF2K stood at 400 nM.

For `Cc1nc(C)c(-c2c3c(nc4sc(C(N)=O)c(N)c24)C(C)(C)CC3)s1` [Compound 41, 3-Amino-4-(2,4-dimethyl-thiazol-5-yl)-7,7-dimethyl-6,7-dihydro-5H-1-thia-8-aza-s-indacene-2-carboxylic acid amide], the IC50 at recombinant eEF2K worked out at 500 nM.

Turning to `NC(=O)c1sc2nc3c(c(-c4cncs4)c2c1N)CCCC31CCCC1` [Compound 42], the IC50 on recombinant eEF2K stood at 3100 nM.

On to `NC(=O)c1sc2nc3c(c(-c4cncs4)c2c1N)C1CCC3C1` (centres unmarked) [Compound 43], for which the IC50 on recombinant eEF2K was 900 nM.

Take `COc1cccc2c1C(=O)c1c(O)c3c(c(O)c1C2=O)C[C@@](O)(C(=O)CO)C[C@@H]3O[C@H]1C[C@H](N)[C@H](O)[C@H](C)O1` [doxorubicin, reference compound]: the “percent of viable cells” value in series [1] (MDA-MB-231, 0.4 μM doxorubicin for 24 hours alone, by day 6) is recorded as “increased slightly”. For the same molecule, in series [3] (H9C2, after doxorubicin was removed after 24 hours), the “proliferation of remaining viable cells” value is on record as “failed to proliferate”. In addition, the cell death in series [3] (H9C2, control arm, 0.4 μM doxorubicin for 24 hours) came to 65%.

These data come from patent publication US10106552B2, “Compounds inhibiting eukaryotic elongation factor 2 kinase activity” (Longevica Pharmaceuticals, Inc., priority 2013, dated 2018).
